In publication PMC4399838, “Antipsychotic-Like Effect of the Muscarinic Acetylcholine Receptor Agonist BuTAC in Non-Human Primates” (PLoS ONE, 2015):

Assays:
[1] = molecular target: M3AChR (Homo sapiens, UniProt P20309); assay: Competitive radioligand binding
[2] = tested on: antipsychotic-naïve Cebus Apella monkeys; assay: d-Amphetamine-induced behaviour (unrest, stereotypies, arousal), video rating; type: in vivo; conditions: d-amphetamine 0.5 mg/kg
Experimental: (§1) Seven male Cebus Apella monkeys were used for evaluation the anti-amphetamine effect and the side effect profile of BuTAC. These monkeys were never before administered antipsychotics and had never experienced EPS, but had previously been administered amphetamine. For further evaluation of the EPS potential of BuTAC, the compound was tested in four male and female monkeys, all sensitized to drug-induced EPS by earlier chronic treatment with classical antipsychotic drugs.
(§2) All monkeys received all treatments with at least one week between tests and thus served as their own control. To avoid extended physical contact with the experimenter, the cages were reduced in sized by moving the back wall of the cage closer to the front wall to lightly immobilize the monkey while injecting the test substance in the thigh. This was done at 9 am at test days. After the appropriate pre-treatment time, the monkeys were videotaped in their cages at predefined time points after drug injection.
(§3) The rated primate behaviours and symptoms were the following: unrest, stereotypy, arousal, sedation and bradykinesia (Table 1). All monkeys were videotaped in 90-sec. sessions at specific time points throughout the test sessions. The videotapes were rated for amphetamine-induced behaviours and EPS by two experienced raters blinded to the treatment of the animal by means of a rating scale adapted from Peacock et al. and previously described by Andersen et al. (Table 1). In case of any discrepancy between the two ratings, the recording in question was re-evaluated and a rating agreed upon. The monkeys were videotaped at t = 30, 60, 90, 135, 150, 165, 180, 240, 300 min after BuTAC (or vehicle) administration. For the combination studies, d-amphetamine was injected at t = 120 min. Oral dyskinesia was measured in counts per 90 sec. The severity of other behaviours and symptoms were rated on a scale ranging from 0 (not present) to 6 (extreme presence).
(§4) For evaluation of anti-amphetamine effects, BuTAC was tested in doses of 0.001, 0.003, 0.01 mg/kg in combination with 0.5 mg/kg of d-amphetamine. BuTAC or peanut oil vehicle was injected s.c. at approximately 9 a.m. Pre-treatment time before s.c. injection of amphetamine was 120 min. For evaluation of side effects, BuTAC was tested alone at doses of 0.001, 0.003 and 0.01 mg/kg in antipsychotic-naïve monkeys and at doses of 0.003 and 0.01 mg/kg in monkeys sensitized to extrapyramidal side effects (EPS) by earlier long-term treatment with first generation antipsychotics. […] None of the animals were sacrificed.
(§5) Data from the experiments where BuTAC was administered alone collected at t = 60, 180, 300 min are presented. For the d-amphetamine / BuTAC study, data collected at t(amp) = 60, 120 and 180 min (t = 180, 240, 300 min) are reported. Data were analyzed for overall treatment effects at each time point by means of the non-parametric Friedman’s test for repeated measures. The Student Newman-Keuls comparison procedure was used to analyze for specific dose effects. For all tests, the accepted level of significance was p<0.05.

[3] = tested on: antipsychotic-naïve Cebus Apella monkeys; assay: Side effects of BuTAC alone or with d-amphetamine; type: in vivo
Experimental: as §1, §2, §3, §4, §5

[4] = tested on: monkeys; assay: BuTAC-induced emesis and its inhibition by domperidone; type: in vivo, Cebus Apella; conditions: BuTAC 0.01 mg/kg alone; observed 300 minutes
Experimental: S1 Table. Emesis BuTAC / Domperidone
BuTAC 0.01 mg/kg / 1 in 7
Domperidone was purchased from Tocris Bioscience (Bristol, United Kingdom) and dissolved
in 0.9% saline. The compound was administered subcutaneously where after the animals

[5] = molecular target: T1, human M2 muscarinic receptor (Homo sapiens, UniProt P08172); parameters: method as in Watt et al. 2013 [10]; conditions: agonist mode, ref Watt et al. 2013 [10], cited from earlier work
T1 construct: purchased PerkinElmer Life and Analytical Sciences, Boston, MA
T1 sequence (P08172 1-466): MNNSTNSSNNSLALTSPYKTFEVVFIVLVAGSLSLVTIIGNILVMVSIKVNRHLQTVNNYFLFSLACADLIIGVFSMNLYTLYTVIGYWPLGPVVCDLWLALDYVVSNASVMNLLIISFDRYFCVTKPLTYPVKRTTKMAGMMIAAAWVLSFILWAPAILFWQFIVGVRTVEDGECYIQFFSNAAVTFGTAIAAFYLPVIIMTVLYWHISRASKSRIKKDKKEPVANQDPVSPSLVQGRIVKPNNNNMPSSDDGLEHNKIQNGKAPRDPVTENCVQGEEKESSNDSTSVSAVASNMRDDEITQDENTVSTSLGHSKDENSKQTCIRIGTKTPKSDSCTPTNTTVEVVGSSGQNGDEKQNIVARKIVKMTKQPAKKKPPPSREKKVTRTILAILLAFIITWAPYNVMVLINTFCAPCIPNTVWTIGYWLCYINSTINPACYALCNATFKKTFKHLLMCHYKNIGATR

[6] = molecular target: T2, human M4 muscarinic receptor (Homo sapiens, UniProt P08173); parameters: method as in Watt et al. 2013 [10]; conditions: ref Watt et al. 2013 [10], cited from earlier work
T2 construct: purchased PerkinElmer Life and Analytical Sciences, Boston, MA
T2 sequence (P08173 1-479): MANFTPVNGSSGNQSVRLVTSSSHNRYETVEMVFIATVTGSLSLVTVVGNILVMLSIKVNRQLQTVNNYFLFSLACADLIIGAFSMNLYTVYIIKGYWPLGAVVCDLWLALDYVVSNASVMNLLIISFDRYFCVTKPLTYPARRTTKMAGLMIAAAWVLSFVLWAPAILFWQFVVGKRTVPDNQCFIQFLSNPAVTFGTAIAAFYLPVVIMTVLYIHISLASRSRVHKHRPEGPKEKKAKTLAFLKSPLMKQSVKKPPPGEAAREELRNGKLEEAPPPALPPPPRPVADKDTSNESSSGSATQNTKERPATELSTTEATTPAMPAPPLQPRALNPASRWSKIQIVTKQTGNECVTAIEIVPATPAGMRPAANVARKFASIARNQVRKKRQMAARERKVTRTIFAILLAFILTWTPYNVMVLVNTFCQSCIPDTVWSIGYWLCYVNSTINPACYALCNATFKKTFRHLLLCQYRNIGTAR

[7] = BuTAC 0.003 mg/kg s.c., at 180 min
[8] = BuTAC 0.01 mg/kg s.c., at 120 and 180 min
[9] = BuTAC 0.001 mg/kg / d-amphetamine 0.5 mg/kg
[10] = BuTAC alone 0.001, 0.003, 0.01 mg/kg

Sequence of M3AChR (P20309 whole entry): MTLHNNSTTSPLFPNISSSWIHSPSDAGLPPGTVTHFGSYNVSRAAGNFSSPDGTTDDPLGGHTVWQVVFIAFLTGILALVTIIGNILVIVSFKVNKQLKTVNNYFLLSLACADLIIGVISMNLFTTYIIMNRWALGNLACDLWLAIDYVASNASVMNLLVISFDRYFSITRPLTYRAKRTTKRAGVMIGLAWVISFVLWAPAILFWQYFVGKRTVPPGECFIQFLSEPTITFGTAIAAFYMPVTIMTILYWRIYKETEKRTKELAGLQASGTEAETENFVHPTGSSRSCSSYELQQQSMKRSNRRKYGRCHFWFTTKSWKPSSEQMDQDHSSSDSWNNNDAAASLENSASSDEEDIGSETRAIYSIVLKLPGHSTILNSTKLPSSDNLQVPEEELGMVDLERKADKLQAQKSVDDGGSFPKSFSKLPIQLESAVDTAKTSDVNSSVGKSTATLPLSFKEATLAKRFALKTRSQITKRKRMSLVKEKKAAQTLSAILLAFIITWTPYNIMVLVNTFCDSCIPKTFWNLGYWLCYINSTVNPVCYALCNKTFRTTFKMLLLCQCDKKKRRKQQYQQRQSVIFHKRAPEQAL

Compound: CCCSc1nsnc1[C@H]1CN2CCC[C@H]1C2 [PTAC, (5R,6R) 6-(3-propylthio-1,2,5-thiadiazol-4-yl)-1-azabicyclo-[3.2.1]-octane]
- Ki [1]: 0.398 nM

Compound: CCCCSc1nsnc1[C@H]1CN2CCC[C@H]1C2 [BuTAC, (5R,6R)-6-(3-butylthio-1,2,5-thiadiazol-4-yl)-1-azabicyclo[3.2.1]octane]
- Effect on d-amphetamine-induced arousal ([2]; BuTAC 0.001 mg/kg s.c., at 60 min): counteracted
- Effect on amphetamine-induced stereotypies [2, 7]: significantly reduced
- Effect on amphetamine-induced unrest [2, 7]: significantly counteracted
- Effect on amphetamine-induced stereotypies [2, 8]: significantly reduced
- Effect on amphetamine-induced unrest [2, 8]: significantly counteracted
- Effect on d-amphetamine-induced arousal ([2]; BuTAC 0.003 and 0.01 mg/kg s.c., at 60, 120 and 180 min): counteracted
- Emetic events (vomiting) (monkeys affected) [3, 9]: 0
- Sedation 2 ≤ X ≤ 5 (monkeys affected) [3, 9]: 0
- Salivation (monkeys affected) ([3]; BuTAC 0.001 mg/kg / vehicle): 0
- Sedation 2 ≤ X ≤ 5 (monkeys affected) ([3]; BuTAC 0.001 mg/kg / vehicle): 0
- Sedation 2 ≤ X ≤ 5 (monkeys affected) ([3]; BuTAC 0.003 mg/kg / d-amphetamine 0.5 mg/kg): 0
- Salivation (monkeys affected) ([3]; BuTAC 0.003 mg/kg / vehicle): 0
- Muscular relaxation (monkeys affected) ([3]; BuTAC 0.01 mg/kg (footnote of Table 3)): all monkeys
- Sedation 2 ≤ X ≤ 5 (monkeys affected) ([3]; BuTAC 0.01 mg/kg / d-amphetamine 0.5 mg/kg): 0
- Muscular relaxation (monkeys affected) ([3]; BuTAC 0.001 and 0.003 mg/kg (footnote of Table 3)): one
- Muscular relaxation (monkeys affected) ([3]; BuTAC 0.003 and 0.01 mg/kg combined with d-amphetamine): Six
- Unrest (rating 0–6) ([3]; BuTAC alone 0.01 mg/kg, after 180 and 300 min, p<0.05): decrease in unrest
- Sedation (rating 0–6) ([3]; BuTAC alone 0.01 mg/kg, all three test times, p<0.05 relative to vehicle): produced sedation
- Arousal [3, 10]: no significant effect
- Stereotypies, oral dyskinesia, bradykinesia or dystonia [3, 10]: not observed
- Sedation, oral dyskinesia, bradykinesia or dystonia ([3]; BuTAC and d-amphetamine): not observed
- EPS ([3]; EPS naive monkeys): did not induce EPS
- Emetic events (vomiting), monkeys with emesis [4]: 7/7
- Rel pEC50 ([5]; negative log-transformed): 9.56 ±10.26 M
- % Emax [5]: 136.53 ± 17.20%
- Rel pEC50 ([6]; agonist mode, negative log-transformed): 10.27 ± 10.31 M
- % Emax ([6]; agonist mode): 35.53 ± 11.51%
- Rel pIC50 ([6]; antagonist mode, negative log-transformed): 9.19 ± 9.13 M
- % Inhibition ([6]; antagonist mode): 57.55 ± 3.22%
